Twelve compounds from ChEMBL document CHEMBL1152465, “Comparative evaluation of the inhibitory activities of a series of pyrimidinedione congeners that inhibit human immunodeficiency virus types 1 and 2” (Antimicrob Agents Chemother, 2008) can be followed below.

The test system of series [1] is Human immunodeficiency virus 2. The experiment in a line: Inhibition of HIV2 reverse transcriptase.
For series [2], the system named is Human immunodeficiency virus 2. In words: Antiviral activity against HIV2 infected in human CEM-SS cells assessed as inhibition of viral replication and virus-induced cytopathic effect by dose-response curve analysis. The class given is functional. The conditions noted are these: Human immunodeficiency virus 2, CEM-SS. (Protection from cytopathic effect is a common read-out in antiviral testing.)

The test system of series [3] is Human immunodeficiency virus 2. In words: Antiviral activity against HIV2 ROD infected in human CEM-SS cells assessed as inhibition of virus-induced cytopathic effect by XTT assay. The class given is functional, organism-based, ISOLATE ROD.
The target of series [4] is Human immunodeficiency virus type 1 reverse transcriptase (Human immunodeficiency virus 1, UniProt Q72547). In words: Inhibition of wild type HIV1 reverse transcriptase assessed as 32P-labeled GMP incorporation into nascent DNA strand.
Series [5] has as its system Human immunodeficiency virus 2. The experiment in a line: Antiviral activity against HIV2 assessed as inhibition of viral replication treated at time points after viral entry into host cells. The class given is functional, organism-based.
In series [6] the test system is Human immunodeficiency virus 1. The experiment in a line: Antiviral activity against HIV1 infected in human HeLa cells expressing CD4-LTR assessed as inhibition of viral entry-related beta galactosidase expression treated for 2 hrs followed by drug wash out measured after 48 hrs by MAGI assay. The class given is functional, organism-based. The conditions noted are these: Human immunodeficiency virus 1, HeLa.

The nature of series [7]: Cytotoxicity against human CEM-SS cells by XTT assay. The class given is cell-based. The conditions noted are these: read-out: TC50 (the source's name).
The subject of series [8] is Human immunodeficiency virus 2. The experiment in a line: Inhibition of HIV2 reverse transcriptase assessed as 32P-labeled GMP incorporation into nascent DNA strand at highest concentration.
Series [9] concerns Human immunodeficiency virus 2. The experiment in a line: Antiviral activity against HIV2 assessed as inhibition of viral single round replication at early time point. The class given is functional, organism-based.
Series [10] is described as follows: Therapeutic index, ratio of TC50 for human CEM-SS cells to EC50 for HIV2 ROD infected in human CEM-SS cells. The class given is cell-based. The note with it: for selectivity ratio: CEM-SS cells, read-out: TI; for TI: cem-ss.
Series [11] is described as follows: Therapeutic index, ratio of TC50 human HeLa cells expressing CD4-LTR to EC50 for HIV1 entry inhibition in human HeLa cells expressing CD4-LTR. The class given is cell-based. The note with it: read-out: TI.
The test system of series [12] is Human immunodeficiency virus 1. The experiment in a line: Antiviral activity against HIV1 RF infected in human CEM-SS cells assessed as inhibition of virus-induced cytopathic effect by XTT assay. The class given is functional, organism-based. The note with it: Human immunodeficiency virus 1, RF.
Series [13] can be described thus: Therapeutic index, ratio of TC50 for human CEM-SS cells to EC50 for HIV1 RF infected in human CEM-SS cells. The class given is cell-based. The note with it: read-out: TI.
Series [14] in a line: Cytotoxicity against human HeLa cells expressing CD4-LTR by XTT assay. The class given is cell-based. The conditions noted are these: read-out: TC50 (the source's name). Background: Formazan colour is commonly taken as a measure of viable cells.
Series [15] addresses Human immunodeficiency virus type 1 reverse transcriptase (Human immunodeficiency virus 1, UniProt Q72547, K103N). The experiment in a line: Inhibition of HIV1 reverse transcriptase K103N mutant assessed as 32P-labeled GMP incorporation into nascent DNA strand.
The test system of series [16] is Human immunodeficiency virus 1. The experiment in a line: Antiviral activity against HIV1 infected in human CEM-SS cells assessed as inhibition of viral replication and virus-induced cytopathic effect by dose-response curve analysis. The class given is functional. The note with it: Human immunodeficiency virus 1, CEM-SS.
Where [17] appears, read: Human immunodeficiency virus 2, ISOLATE ROD, CEM-SS, read-out: EC50.

The source made the active and inactive calls.

In the case of `Cc1cc(C)cc(Oc2c(C(C)C)c(=O)[nH]c(=O)n2CC2CC2)c1`, the outcome in series [1], in [5] and in [8] was inactive. The 99% effect concentration (EC99) in series [2] was found to be 1 µM. The EC50 in series [3] (setting [17]) was found to be 0.5 µM; in series [6] it was 0.27 µM; in series [12] it was 0.0018 µM. Also, the values for the IC50 in [4] and in series [15] were 0.012 µM and 0.067 µM, respectively. The CC50 in series [7] was 19.5 µM; in [14], 23.4 µM. Besides, the result in [9] was Active. Moreover, the figures for the selectivity ratio in series [10], in [11] and in series [13] were 40, 86 and 15500, respectively.

For the compound `Cc1cc(C)cc(Sc2c(C(C)C)c(=O)[nH]c(=O)n2CCC2CC=CC2)c1`, the result in series [1], in [5] and in series [8] was inactive. Moreover, the 99% effect concentration (EC99) in series [16] stood at 1 µM. For the same compound, the half-maximal effective concentration (EC50) in series [3] (setting [17]) came out at 6.2 µM; in [6], 0.08 µM; in [12], 0.002 µM. Moreover, the IC50 in [4] came to 0.254 µM; in series [15], 149 µM. The CC50 in [7] was found to be 12.8 µM; in series [14] it was 14.2 µM. Besides, the result in series [9] was Active. The selectivity ratio turned out to be 2.5 in series [10], 173 in series [11] and 6530 in [13].

As for `Cc1cc(C)cc(Oc2c(C(C)C)c(=O)[nH]c(=O)n2CC2CC=CC2)c1`, the outcome in series [1], in [5] and in series [8] was inactive. The concentration for an effect of 99% (EC99) in [16] stood at 1 µM. For the same compound, the EC50 is 18.2 µM in [3] (setting [17]), 0.09 µM in series [6] and 0.015 µM in [12]. Further, the IC50 is 0.256 µM in series [4] and 1.9 µM in series [15]. Also, the CC50 in series [7] and in series [14] was 200 µM throughout. Also, the outcome in [9] was Active. The selectivity ratio turned out to be 11 in series [10], 2340 in [11] and 12900 in series [13].

In the case of `CCc1c(C(=O)c2cc(C)cc(C)c2)n(Cc2ccccc2)c(=O)[nH]c1=O`, the outcome in series [1], in series [5] and in [8] was inactive. Further, in [16], the EC99 was 1 µM. For the same compound, the figures for the EC50 in series [3] (setting [17]), in series [6] and in [12] were 0.4 µM, 0.05 µM and 0.016 µM, respectively. The IC50 in [4] came to 0.025 µM; in series [15], 2.3 µM. The values for the CC50 in [7] and in [14] were 24.6 µM and 562 µM, respectively. For the same compound, the outcome in [9] was Active. In addition, the selectivity ratio in [10] was 59.3; in series [11], 10200; in series [13], 68300.

As for `Cc1cc(C)cc(Sc2c(C(C)C)c(=O)[nH]c(=O)n2CCC2C=CCC2)c1` (stereo not given), the result in series [1], in series [5] and in series [8] was inactive. Besides, the EC99 in series [16] is 1 µM. The EC50 in series [3] (setting [17]) was determined as 4.8 µM; in [6], 0.009 µM; in [12], 0.021 µM. The IC50 in series [4] was 0.246 µM; in series [15] it was greater than 260 µM. Further, the CC50 in [7] came out at 25.8 µM; in [14], 31.9 µM. Moreover, the outcome in series [9] was Active. The selectivity ratio in series [10] is 5.4; in [11], 3650; in [13] it was 1850.

For `Cc1cc(C)cc(C(=O)c2c(C(C)C)c(=O)[nH]c(=O)n2CC2CCCC2)c1`, the result in series [1], in series [5] and in series [8] was inactive. The EC99 in series [16] worked out at 1 µM. Moreover, the EC50 in series [3] (setting [17]) worked out at 0.4 µM; in series [6], 0.08 µM; in series [12], 0.0035 µM. Moreover, the figures for the IC50 in series [4] and in series [15] were 0.147 µM and 15.3 µM, respectively. Further, the CC50 in series [7] was determined as 15.2 µM; in series [14], 16.6 µM. The outcome in series [9] was Active. Also, the selectivity ratio came to 40 in [10], 203 in [11] and 5080 in series [13].

As for `Cc1cc(C)cc(Oc2c(C(C)C)c(=O)[nH]c(=O)n2CCC2CC=CC2)c1`, the result in series [1], in series [5] and in series [8] was inactive. The EC99 in series [16] was found to be 1 µM. In addition, the EC50 is 1.4 µM in series [3] (setting [17]), 2.24 µM in series [6] and 0.02 µM in [12]. Moreover, the IC50 in [4] was determined as 0.176 µM; in [15], 2.3 µM. Further, the CC50 in series [7] amounted to 10.3 µM; in series [14], 14.2 µM. For the same compound, the outcome in series [9] was Active. The selectivity ratio in series [10] is 7.3; in series [11], 6; in series [13], 918.

On to `CCc1c(Oc2cc(C)cc(C)c2)n(CC2CCCC2)c(=O)[nH]c1=O`, for which the result in [1], in series [5] and in series [8] was inactive. For the same compound, in series [16], the concentration for an effect of 99% (EC99) came out at 1 µM. In addition, the EC50 in [3] (setting [17]) was 2.9 µM; in [6], 0.23 µM; in [12], 0.015 µM. The IC50 amounted to 0.137 µM in series [4] and 0.272 µM in series [15]. Further, the CC50 stood at 20.2 µM in [7] and 20.9 µM in series [14]. In [9], the outcome was Active. For the same compound, the selectivity ratio in [10] stood at 7; in series [11], 89; in series [13], 1450.

For `Cc1cc(C)cc(Oc2c(C(C)C)c(=O)[nH]c(=O)n2CC2CCCCC2)c1`, the result in series [1], in [5] and in series [8] was inactive. Moreover, the EC99 in [16] was found to be 1 µM. The figures for the EC50 in series [3] (setting [17]), in series [6] and in [12] were 1.6 µM, 0.84 µM and 0.0049 µM, respectively. Also, the figures for the IC50 in series [4] and in [15] were 0.143 µM and 11.9 µM, respectively. In addition, the CC50 was determined as 13.2 µM in series [7] and 34.4 µM in series [14]. For the same compound, the result in series [9] was Active. Besides, the selectivity ratio stood at 8.4 in series [10], 41 in series [11] and 11400 in series [13].

Turning to `CC(C)c1c(Sc2ccccc2)n(CC2CC=CC2)c(=O)[nH]c1=O`, the outcome in series [1], in series [5] and in series [8] was inactive. Moreover, in series [16], the EC99 turned out to be 1 µM. Further, the concentration giving a half-maximal response (EC50) result in series [3] (cem-ss) is “Not Active”; in series [6], 1.19 µM; in series [12], 0.028 µM. Further, the IC50 in [4] was 0.244 µM; in series [15] it was greater than 292 µM. Also, the results for the CC50 in series [7] and in [14] were 15.5 µM and 25.9 µM, respectively. For the same compound, the outcome in series [9] was Active. In addition, the TI entry in series [10] was “Not Active”. Besides, the selectivity ratio amounted to 22 in series [11] and 1300 in series [13].

As to `CCc1c(C(=O)c2cc(C)cc(C)c2)n(CCC2CCCC2)c(=O)[nH]c1=O`, the outcome in [1], in series [5] and in series [8] was inactive. The EC99 in [16] came out at 1 µM. Further, the EC50 result was “Not Active” in [3] (cem-ss), 0.02 µM in [6] and 0.01 µM in series [12]. Also, the figures for the IC50 in series [4] and in series [15] were 0.119 µM and greater than 271 µM, respectively. For the same compound, the figures for the CC50 in [7] and in series [14] were 25.8 µM and 22.2 µM, respectively. The outcome in series [9] was Active. For the same compound, the TI result in series [10] is given as “Not Active”. For the same compound, the results for the selectivity ratio in series [11] and in [13] were 1230 and 2580, respectively.

Regarding `CCc1c(Sc2cc(C)cc(C)c2)n(CC2CCCCC2)c(=O)[nH]c1=O`, the outcome in [1], in series [5] and in series [8] was inactive. In series [16], the EC99 amounted to 1 µM. The EC50 was determined as 26.9 µM in [3] (setting [17]), 0.05 µM in series [6] and 0.134 µM in series [12]. The IC50 in series [4] was 0.152 µM; in series [15] it was greater than 268 µM. In addition, the CC50 in series [7] and in series [14] was 71.7 µM each time. In addition, in series [9], the result was Active. Moreover, the results for the selectivity ratio in [10], in [11] and in series [13] were 2.7, 1320 and 534, respectively.

Broadly, the EC99 is the concentration needed for an effect of 99%. Usually EC50 stands for the midpoint of the concentration-response curve. What is called IC50 is the midpoint of a concentration-inhibition curve.
